Like-named read-outs stand apart in the source and are kept apart here. *1 amine or outer side, *2 acyl side, *3 side chain or, on linkers, in order; H or OH if unused. Where a SMILES comes first, the peptide text is derived from it. Side-chain parts run from the residue outwards. [ ]: non-standard residue; d: D form. The star is where a group is joined. C20 diacid = O=C(O)CCCCCCCCCCCCCCCCCCC(=O)*; γGlu = O=C(O)[C@H](CCC(=O)[*:2])N[*:1]; AEEA = NCCOCCOCC(=O)O; Aib = CC(C)(N)C(=O)O
Tests used:
human GLP-2 receptor = target: T1, human GLP-2 receptor (Homo sapiens, UniProt O95838, D470N); test: GLP-2 receptor potency assay (cAMP ALPHASCREEN, HEK293 cells stably expressing GLP-2 R); format: cell-based; settings: cAMP response, HEK293 cells expressing human GLP-2 R; read-out: EC50 GLP-2
T1 construct: expressed in transfected cells
T1 sequence (O95838 1-553 D470N): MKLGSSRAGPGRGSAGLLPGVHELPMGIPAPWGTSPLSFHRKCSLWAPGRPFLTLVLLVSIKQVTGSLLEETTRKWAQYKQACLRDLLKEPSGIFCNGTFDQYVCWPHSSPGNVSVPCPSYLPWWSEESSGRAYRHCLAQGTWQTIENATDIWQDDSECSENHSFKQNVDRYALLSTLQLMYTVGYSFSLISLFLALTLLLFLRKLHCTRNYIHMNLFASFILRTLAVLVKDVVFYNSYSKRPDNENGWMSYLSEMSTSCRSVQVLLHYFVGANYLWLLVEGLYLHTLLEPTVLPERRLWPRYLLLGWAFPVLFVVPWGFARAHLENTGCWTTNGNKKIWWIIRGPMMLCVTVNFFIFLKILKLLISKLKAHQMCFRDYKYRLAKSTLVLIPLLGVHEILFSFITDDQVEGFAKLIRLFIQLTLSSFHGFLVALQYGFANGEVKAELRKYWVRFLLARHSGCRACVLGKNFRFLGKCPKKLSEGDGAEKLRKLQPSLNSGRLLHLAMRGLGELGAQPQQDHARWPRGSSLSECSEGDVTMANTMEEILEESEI
Description: One useful in vitro assay for measuring GLP-1 and GLP-2 receptor activity is quantitation of cAMP, i.e. 3′-5′-cyclic adenosine monophosphate, which is a second messenger essential in many biological processes, and one of the most ubiquitous mechanisms for regulating cellular functions.
For subcloning into a mammalian expression vector, primers for subcloning were obtained from DNA-Technology, Risskov, Denmark. The 5′ and 3′ primers used for the PCR reaction include terminal restriction sites for cloning and the context of the 5′ primer is modified to a Kozak consensus without changing the sequence of the product encoded by the ORF. […] The generated PCR product was purified using GFX PCR and Gel band purification kit, digested with restriction enzymes and cloned into the mammalian expression vector using Rapid DNA Ligation Kit. Ligation reaction was transformed to XL10 Gold Ultracompetent cells and colonies were picked for DNA production using ENDOFREE® Plasmid maxi kit. Subsequent sequence analysis was conducted by MWG Eurofins, Germany.
HEK293 cells were transfected using the LIPOFECTAMINE® PLUS transfection method. The day before transfection, HEK293 cells were seeded in two T75 flasks at a density of 2×10^6 cells/T75 flask in cell culturing medium without antibiotics. On the day of transfection, cells were washed with 1× DPBS and medium was replaced with OPTI-MEM© to a volume of 5 mL/T75 flask before addition of LIPOFECTAMINE®-plasmid complexes were added gently and drop wise to the cells in T75 flasks and replaced with growth medium after 3 hours and again to growth medium supplemented with 500 μg/mL G418 after 24 hours. Following 4 weeks in G418 selection, clones were picked and tested in a functional GLP-2 receptor potency assay as described below.
The cAMP ALPHASCREEN® assay from Perkin Elmer was used to quantitate the cAMP response to activation of the GLP1 and GLP2 receptor, respectively. […] Data from test compounds eliciting an increase in the intracellular level of cAMP were normalized relative to the positive and negative control (vehicle) to calculate the EC50 and maximal response from the concentration response curve.

[1] = Solubility assessment (turbidity absorbance at 325 nm); format: physicochemical
How it was run: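 Peptide stock at 2 mg/ml in water at pH 2.5 diluted 1:1 into 100 mM acetate (pH 4.0, 5.0), histidine (pH 6.0, 7.0) or phosphate (pH 6.0, 7.0, 7.5) buffer. Absorbance at 280 and 325 nm read at ambient temperature (typically 25 °C), single samples (n=1).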

[2] = Chemical stability (RP-HPLC normalized purity after incubation at 40° C.); format: physicochemical; settings: pH 7, 40° C., 14-day incubation, 0.2 mg/ml, normalized purity (area-%)
How it was run: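 Peptide at 0.2 mg/ml final in water adjusted to pH 6, 7, 7.5 or 9, incubated at 40° C for 14 days. Purity measured as main-peak area-% by C18 RP-HPLC (acetonitrile/TFA/water gradient, UV 220 nm) and normalized to T=0 set at 100 for each pH.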

[3] = 100 mM acetate buffer pH 4.0, ambient temperature, read-out: Solubility Acetate buffer pH 4
[4] = 100 mM acetate buffer pH 5.0, ambient temperature, read-out: Solubility Acetate buffer pH 5
[5] = 100 mM histidine buffer pH 6.0, ambient temperature, read-out: Solubility Histidine buffer pH 6
[6] = 100 mM histidine buffer pH 7.0, ambient temperature, read-out: Solubility Histidine buffer pH 7
[7] = 100 mM phosphate buffer pH 6.0, ambient temperature, read-out: Solubility Phosphate buffer pH 6
[8] = 100 mM phosphate buffer pH 7.0, ambient temperature, read-out: Solubility Phosphate buffer pH 7
[9] = 100 mM phosphate buffer pH 7.5, ambient temperature, read-out: Solubility Phosphate buffer pH 7.5

CC[C@H](C)[C@H](NC(=O)[C@H](Cc1ccccc1)NC(=O)[C@H](CC(=O)O)NC(=O)[C@H](CCCNC(=N)N)NC(=O)[C@H](C)NC(=O)[C@H](C)NC(=O)[C@H](CCC(N)=O)NC(=O)[C@H](CCCCNC(=O)CC[C@H](NC(=O)CCCCCCCCCCCCCCCCC(=O)O)C(=O)O)NC(=O)[C@H](CC(=O)O)NC(=O)[C@H](CC(C)C)NC(=O)[C@@H](NC(=O)[C@@H](NC(=O)[C@H](C)NC(=O)[C@H](CC(C)C)NC(=O)[C@H](CCC(=O)O)NC(=O)[C@H](CO)NC(=O)[C@@H](NC(=O)[C@H](Cc1ccccc1)NC(=O)[C@@H](NC(=O)CNC(=O)[C@H](CCC(=O)O)NC(=O)C(C)(C)NC(=O)[C@@H](N)Cc1c[nH]cn1)[C@@H](C)O)[C@@H](C)O)[C@@H](C)O)[C@@H](C)CC)C(=O)N[C@@H](C)C(=O)N[C@@H](Cc1c[nH]c2ccccc12)C(=O)N[C@@H](CC(C)C)C(=O)N[C@H](C(=O)N[C@@H](CCC(=O)O)C(=O)N[C@@H](Cc1c[nH]cn1)C(=O)N[C@@H](CCCCN)C(=O)N[C@H](C(=O)N[C@H](C(=O)N[C@@H](CC(=O)O)C(=O)O)[C@@H](C)O)[C@@H](C)CC)[C@@H](C)CC [Compound 25] (HELM PEPTIDE1{H.[Aib].E.G.T.F.T.S.E.L.A.T.I.L.D.K.Q.A.A.R.D.F.I.A.W.L.I.E.H.K.I.T.D}|PEPTIDE2{[O=C(O)CCCCCCCCCCCCCCCCC(=O)[*:2]].[gGlu]}$PEPTIDE1,PEPTIDE2,16:R3-2:R2$$$V2.0)
EC50 (human GLP-2 receptor): 0.33 nM
solubility [1, 3]: < 1000 µg/mL
solubility [1, 4]: < 1000 µg/mL
solubility [1, 5]: ≥ 1000 µg/mL
solubility [1, 6]: ≥ 1000 µg/mL
solubility [1, 7]: ≥ 1000 µg/mL
solubility [1, 8]: ≥ 1000 µg/mL
solubility [1, 9]: ≥ 1000 µg/mL
pH 7 normalized stability [2]: A (>90% normalised stability)

CC[C@H](C)[C@H](NC(=O)[C@H](Cc1ccccc1)NC(=O)[C@H](CC(=O)O)NC(=O)[C@H](CCCNC(=N)N)NC(=O)[C@H](C)NC(=O)[C@H](C)NC(=O)[C@H](CCC(N)=O)NC(=O)[C@H](CCC(=O)O)NC(=O)[C@H](CC(=O)O)NC(=O)[C@H](CC(C)C)NC(=O)[C@@H](NC(=O)[C@@H](NC(=O)[C@H](C)NC(=O)[C@H](CCCCNC(=O)COCCOCCNC(=O)COCCOCCNC(=O)CC[C@H](NC(=O)CCCCCCCCCCCCCCCCCCC(=O)O)C(=O)O)NC(=O)[C@H](CCC(=O)O)NC(=O)[C@H](CO)NC(=O)[C@@H](NC(=O)[C@H](Cc1ccccc1)NC(=O)[C@H](CO)NC(=O)CNC(=O)[C@H](CCC(=O)O)NC(=O)C(C)(C)NC(=O)[C@@H](N)Cc1c[nH]cn1)[C@@H](C)O)[C@@H](C)O)[C@@H](C)CC)C(=O)N[C@@H](C)C(=O)N[C@@H](Cc1c[nH]c2ccccc12)C(=O)N[C@@H](CC(C)C)C(=O)N[C@H](C(=O)N[C@@H](CCC(=O)O)C(=O)N[C@@H](Cc1c[nH]cn1)C(=O)N[C@@H](CCCCN)C(=O)N[C@H](C(=O)N[C@H](C(=O)N[C@@H](CC(=O)O)C(=O)O)[C@@H](C)O)[C@@H](C)CC)[C@@H](C)CC [Compound 42] (H-H[Aib]EGSFTSEK([AEEA-AEEA-γGlu-C20 diacid])ATILDEQAARDFIAWLIEHKITD-OH)
EC50 (human GLP-2 receptor): 0.33 nM
pH 7 normalized stability [2]: A (>90% normalised stability)

CC[C@H](C)[C@H](NC(=O)[C@H](Cc1ccccc1)NC(=O)[C@H](CC(=O)O)NC(=O)[C@H](CCCNC(=N)N)NC(=O)[C@H](C)NC(=O)[C@H](C)NC(=O)[C@H](CCCCN)NC(=O)[C@H](CCCCNC(=O)COCCOCCNC(=O)[C@H](CCCCN)NC(=O)[C@H](CCC(=O)O)NC(=O)[C@H](CCCCN)NC(=O)CC[C@H](NC(=O)CCCCCCCCCCCCCCCCCCC(=O)O)C(=O)O)NC(=O)[C@H](CC(=O)O)NC(=O)[C@H](CC(C)C)NC(=O)[C@@H](NC(=O)[C@@H](NC(=O)[C@H](C)NC(=O)[C@H](CC(C)C)NC(=O)[C@H](CCC(=O)O)NC(=O)[C@H](CO)NC(=O)[C@@H](NC(=O)[C@H](Cc1ccccc1)NC(=O)[C@H](CO)NC(=O)CNC(=O)[C@H](CCC(=O)O)NC(=O)C(C)(C)NC(=O)[C@@H](N)Cc1c[nH]cn1)[C@@H](C)O)[C@@H](C)O)[C@@H](C)CC)C(=O)N[C@@H](C)C(=O)N[C@@H](Cc1c[nH]c2ccccc12)C(=O)N[C@@H](CC(C)C)C(=O)N[C@H](C(=O)N[C@@H](CCC(=O)O)C(=O)N[C@@H](Cc1c[nH]cn1)C(=O)N[C@@H](CCCCN)C(=O)N[C@H](C(=O)N[C@H](C(=O)N[C@@H](CC(=O)O)C(=O)O)[C@@H](C)O)[C@@H](C)CC)[C@@H](C)CC [Compound 59] (HELM PEPTIDE1{H.[Aib].E.G.S.F.T.S.E.L.A.T.I.L.D.K.K.A.A.R.D.F.I.A.W.L.I.E.H.K.I.T.D}|PEPTIDE2{[O=C(O)CCCCCCCCCCCCCCCCCCC(=O)[*:2]].[gGlu].K.E.K.[O=C(COCCOCCN[*:1])[*:2]]}$PEPTIDE1,PEPTIDE2,16:R3-6:R2$$$V2.0)
EC50 (human GLP-2 receptor): 0.11 nM

CC[C@H](C)[C@H](NC(=O)[C@H](Cc1ccccc1)NC(=O)[C@H](CC(=O)O)NC(=O)[C@H](CCCNC(=N)N)NC(=O)[C@H](C)NC(=O)[C@H](C)NC(=O)[C@H](CCC(N)=O)NC(=O)[C@H](CCCCNC(=O)CC[C@H](NC(=O)CCCCCCCCCCCCCCCCC(=O)O)C(=O)O)NC(=O)[C@H](CC(=O)O)NC(=O)[C@H](CC(C)C)NC(=O)[C@@H](NC(=O)[C@@H](NC(=O)[C@H](C)NC(=O)[C@H](CC(C)C)NC(=O)[C@H](CCC(=O)O)NC(=O)[C@H](CO)NC(=O)[C@H](CO)NC(=O)[C@H](Cc1ccccc1)NC(=O)[C@@H](NC(=O)CNC(=O)[C@H](CCC(=O)O)NC(=O)C(C)(C)NC(=O)[C@@H](N)Cc1c[nH]cn1)[C@@H](C)O)[C@@H](C)O)[C@@H](C)CC)C(=O)N[C@@H](C)C(=O)N[C@@H](Cc1c[nH]c2ccccc12)C(=O)N[C@@H](CC(C)C)C(=O)N[C@H](C(=O)N[C@@H](CCC(N)=O)C(=O)N[C@@H](Cc1c[nH]cn1)C(=O)N[C@@H](CCCCN)C(=O)N[C@H](C(=O)N[C@H](C(=O)N[C@@H](CC(=O)O)C(=O)O)[C@@H](C)O)[C@@H](C)CC)[C@@H](C)CC [Compound 17] (HELM PEPTIDE1{H.[Aib].E.G.T.F.S.S.E.L.A.T.I.L.D.K.Q.A.A.R.D.F.I.A.W.L.I.Q.H.K.I.T.D}|PEPTIDE2{[O=C(O)CCCCCCCCCCCCCCCCC(=O)[*:2]].[gGlu]}$PEPTIDE1,PEPTIDE2,16:R3-2:R2$$$V2.0)
EC50 (human GLP-2 receptor): 0.33 nM
solubility [1, 3]: < 1000 µg/mL
solubility [1, 4]: < 1000 µg/mL
solubility [1, 5]: ≥ 1000 µg/mL
solubility [1, 6]: ≥ 1000 µg/mL
solubility [1, 7]: ≥ 1000 µg/mL
solubility [1, 8]: ≥ 1000 µg/mL
solubility [1, 9]: ≥ 1000 µg/mL

— US11395847B2, “Acylated GLP-1/GLP-2 dual agonists” (Zealand Pharma A/S, priority 2016, dated 2022)
